Patent US11458138B2 (Novartis AG, priority 2017, dated 2022)

Experiments:
[1] = system: human corneal endothelial cells (CECs); assay: Human corneal endothelial cell population expansion: fold cell expansion; format: cell-based; conditions: 10 micromolar compound, X-VIVO15 medium, 10 days, ratio of expanded to seeded cells
Description: (§1) Cells were cultured at 37° C. in 5% CO2.
(§2) For each compound, two sets of cultures were generated. A first set of cultures was fixed in 4% PFA for 20 minutes at room temperature after cells isolated from the cornea had attached to the cell culture dish (typically 24 h after cell plating). A second set of cultures was fixed in 4% PFA for 20 minutes at room temperature 10 days after the first one.
(§3) To measure cell density in all fixed cultures, the number of nuclei stained with Sytox Orange (ThermoFisher) were counted per surface area as follows: fixed cell cultures fixed were permeabilized in a solution of 0.3% Triton X-100 (Sigma-Aldrich). Cells were then labeled in a solution of 0.5 micromolar of Sytox Orange in PBS for 5 minutes at room temperature. Nuclei were counted under a Zeiss epifluorescence microscope. The expansion factor was then determined by calculating the ratio of the expanded population of cells to population of seeded cells.

[2] = system: human corneal endothelial cells (CECs); assay: Human corneal endothelial cell population expansion: endothelial cell density in vitro; format: cell-based; conditions: 10 micromolar compound, X-VIVO15 medium, 10 days
Description: as §1, §2, §3

[3] = system: Phospho-YAP (SER127) in HaCaT cells; assay: pYAP HTRF Assay (HaCaT Cells); format: cell-based, human; conditions: Homo sapiens, 2 hours
In short: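 HaCaT cells at 5500 cells/well were cultured 48 hours at 37° C, then treated with compound for 2 hours. Phospho-YAP (Ser127) was detected by HTRF after an overnight (20 hrs) room-temperature incubation, read as the 665 nm/620 nm ratio.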

LATS1 = LATS1 (Homo sapiens (Human), UniProt O95835); assay: LATS1 biochemical assay (Table 1A, Compound Examples 1-290; method in the earlier part)
[4] = system: human limbal stem cells (LSCs); assay: Human limbal stem cell population expansion: percentage of p63alpha-positive cells; format: cell-based; conditions: 10 micromolar, XVIVO15 medium
Description: as §1
as §2, with “temperature” for “temperature 10 days”, “being cultured for two passages. Cells were passaged when they reached 90-100% confluence.” for “the first one.”
In order to observe that the expanded cell population expressed p63alpha, this was measured by immunohistochemistry as follows. The fixed cell cultures were permeabilized and blocked in a blocking solution of 0.3% Triton X-100 (Sigma-Aldrich) and 3% donkey serum in PBS for 30 minutes. Cells were then labeled with primary antibody in the blocking solution for 12 hours at 4° C. Primary antibody used was p63alpha from Cell Signalling. Samples were washed in PBS three times and donkey-raised secondary antibody Alexa Fluor 488 (Molecular Probes) at 1:500 dilution were applied for 30 minutes at room temperature. Cell nuclei were then labeled in a solution of 0.5 micromolar of Sytox Orange (ThermoFisher) in PBS for 5 minutes at room temperature.
To evaluate the percentage of p63alpha-positive cells, the number of cells labeled by the anti-p63alpha antibody was counted and the total number of cells was determined by counting the number of nuclei stained by Sytox Orange. The proportion of p63alpha-positive cells was then determined by calculating the percentage of Sytox-orange-positive nuclei that also expressed p63alpha.

[5] = system: human limbal stem cells (LSCs); assay: Human limbal stem cell population expansion: expansion factor; format: cell-based; conditions: 10 micromolar, XVIVO15 medium, two passages, ratio of expanded to seeded cells
Description: as §1
as §2, with “temperature” for “temperature 10 days”, “being cultured for two passages. Cells were passaged when they reached 90-100% confluence.” for “the first one.”
To evaluate cell expansion ratios, nuclei were counted using a Zeiss LSM 880 confocal microscope. The expansion factor was then determined by calculating the ratio of the expanded population of cells to population of seeded cells.

[6] = system: YAP nuclear translocation in HaCaT cells; assay: YAP Translocation Assay (HaCaT Cells); format: cell-based, human; conditions: Homo sapiens, 24 hours
In short: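 HaCaT cells (20,000/well) in DMEM + 10% FBS were plated overnight at 37° C, then exposed to compound for 24 h at 37° C. Cells were fixed with PFA, permeabilized with 0.1% Triton/1.5% BSA and imaged by high-content imaging.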

[7] = molecular target: Human LATS2 kinase domain protein (Homo sapiens (Human), UniProt Q9NRM7); assay: LATS2 Biochemical Caliper Assay (Compound Examples 1-290); conditions: 400 micromolar ATP
Description: Human LATS2 kinase domain protein was purchased from Carnabio (catalogue number 01-124), which harbors the catalytic domain of amino acids 553-1088, and was co-purified with human His-tagged MOBKL1A (NP_775-739). 5 microlitre of enzyme buffer, 100 nL of compounds and 5 microlitre of localising aid buffer were added into 384-well plates. […] The plates were incubated at 25° C. for 3 hours. 40 microlitre of stop buffer with 25 mM EDTA (NanoSyn) was added to each well to terminate the reaction. Localising aids and products were separated electrophoretically using the microfluidic-based Caliper Labchip 3000 Drug Discovery System (Caliper Life Sciences). Plates were read using blue laser excitation and green fluorescence detection and quantified by fluorescence intensity.

[8] = system: Phospho-YAP (Ser127) in JHH-5 cells; assay: pYAP HTRF Assay (JHH-5 cells); format: cell-based; conditions: 2 hours
In short: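 JHH-5 cells (24000/well) cultured 24 h at 37 °C in William's E with 10% FBS, then exposed to compounds for 2 h at 37 °C. After lysis, pYAP d2/cryptate antibodies incubated 18 h at room temperature; HTRF ratio 665/620 nm ×10000.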

Chain of Human LATS2 kinase domain protein (Q9NRM7 553-1088): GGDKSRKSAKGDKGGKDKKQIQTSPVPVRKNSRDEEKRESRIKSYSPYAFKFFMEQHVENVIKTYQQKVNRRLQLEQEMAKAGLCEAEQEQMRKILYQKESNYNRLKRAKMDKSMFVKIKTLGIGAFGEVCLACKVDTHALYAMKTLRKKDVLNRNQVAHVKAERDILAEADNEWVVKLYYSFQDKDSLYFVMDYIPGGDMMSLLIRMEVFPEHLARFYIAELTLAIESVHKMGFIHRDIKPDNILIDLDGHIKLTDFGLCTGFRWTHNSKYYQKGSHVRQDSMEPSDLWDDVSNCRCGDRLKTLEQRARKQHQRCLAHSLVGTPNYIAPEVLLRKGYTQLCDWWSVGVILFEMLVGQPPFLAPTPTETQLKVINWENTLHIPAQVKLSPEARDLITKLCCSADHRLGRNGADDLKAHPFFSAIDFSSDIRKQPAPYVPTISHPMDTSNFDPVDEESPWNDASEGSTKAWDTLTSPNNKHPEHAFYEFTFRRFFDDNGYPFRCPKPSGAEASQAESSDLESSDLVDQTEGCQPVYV
Chain of Human LATS2 kinase domain protein (Q7L9L4 whole entry partner, the tested form may be a part): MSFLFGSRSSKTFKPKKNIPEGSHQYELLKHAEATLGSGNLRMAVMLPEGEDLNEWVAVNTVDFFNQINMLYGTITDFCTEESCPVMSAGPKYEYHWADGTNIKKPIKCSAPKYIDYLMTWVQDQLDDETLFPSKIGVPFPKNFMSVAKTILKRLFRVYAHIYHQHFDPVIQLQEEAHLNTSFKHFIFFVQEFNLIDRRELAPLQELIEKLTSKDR
Chain of LATS1 (O95835 whole entry, looked up): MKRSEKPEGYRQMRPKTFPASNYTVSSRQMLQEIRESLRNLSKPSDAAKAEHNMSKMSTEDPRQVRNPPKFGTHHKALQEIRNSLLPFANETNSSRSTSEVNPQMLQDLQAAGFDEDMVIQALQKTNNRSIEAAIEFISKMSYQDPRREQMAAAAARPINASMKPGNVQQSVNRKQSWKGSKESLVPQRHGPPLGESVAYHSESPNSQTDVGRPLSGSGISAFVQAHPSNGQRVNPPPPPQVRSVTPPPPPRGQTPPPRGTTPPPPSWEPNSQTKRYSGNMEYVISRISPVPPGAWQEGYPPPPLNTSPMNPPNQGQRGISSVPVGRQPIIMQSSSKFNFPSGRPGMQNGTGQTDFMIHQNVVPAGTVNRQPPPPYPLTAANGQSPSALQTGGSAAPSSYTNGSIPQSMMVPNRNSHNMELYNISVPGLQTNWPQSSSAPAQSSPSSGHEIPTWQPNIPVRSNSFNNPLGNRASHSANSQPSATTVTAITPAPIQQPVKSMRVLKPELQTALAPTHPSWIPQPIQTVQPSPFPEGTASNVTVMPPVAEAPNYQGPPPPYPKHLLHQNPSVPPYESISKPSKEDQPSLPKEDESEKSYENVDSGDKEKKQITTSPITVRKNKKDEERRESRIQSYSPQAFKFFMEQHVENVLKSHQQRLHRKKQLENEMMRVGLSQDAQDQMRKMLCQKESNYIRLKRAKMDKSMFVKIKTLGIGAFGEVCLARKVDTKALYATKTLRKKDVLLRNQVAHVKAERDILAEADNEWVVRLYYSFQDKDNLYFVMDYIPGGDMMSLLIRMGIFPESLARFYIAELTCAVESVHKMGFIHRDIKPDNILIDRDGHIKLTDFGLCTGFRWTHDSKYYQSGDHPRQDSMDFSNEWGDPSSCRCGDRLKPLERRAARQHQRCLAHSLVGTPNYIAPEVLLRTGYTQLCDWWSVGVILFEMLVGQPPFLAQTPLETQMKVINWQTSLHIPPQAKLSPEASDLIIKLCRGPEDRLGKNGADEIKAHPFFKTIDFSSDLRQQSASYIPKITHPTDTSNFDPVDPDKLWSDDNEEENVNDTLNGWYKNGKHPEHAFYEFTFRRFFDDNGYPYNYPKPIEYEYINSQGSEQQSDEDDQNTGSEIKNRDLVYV
Chain of LATS1 (Q7L9L4 whole entry partner, looked up): as the sequence (Q7L9L4 whole entry partner, the tested form may be a part) above

Row | Compound | IC50 (LATS1) [nM] | IC50 [7] [nM] | IC50 [8] [nM] | Expansion factor (Fold Cell expansion) [1] | Endothelial Cell density in vitro [2] [cells/mm^2] | IC50 [3] [nM] | Percentage of p63a-positive cells [4] [%] | Expansion factor [5] | EC50 [6] [nM]
1 | O[C@H]1CCC[C@@H]1Nc1nc(-c2ccncc2)nc2cnccc12 [Example 33, (1S,2S)-2-{[2-(pyridin-4-yl)pyrido[3,4-d]pyrimidin-4-yl]amino}cyclopentan-1-ol] | 71 | – | – | 12 | 25 | > 20000 | 6 | 39 | > 20000
2 | FC(F)(F)C1(Nc2nc(-c3ccncc3)nc3cnccc23)CCC1 [Example 62, 2-(pyridin-4-yl)-N-[1-(trifluoromethyl)cyclobutyl]pyrido[3,4-d]pyrimidin-4-amine] | 1 | 2 | 600 | 402 | 3301 | 40 | 95 | 1712 | 538
3 | CC(C)N(C)c1nc(-c2ccncc2)nc2cnccc12 [Example 5, N-methyl-N-(propan-2-yl)-2-(pyridin-4-yl)pyrido[3,4-d]pyrimidin-4-amine] | 2 | – | 2300 | 408 | 3911 | 2190 | – | – | 2480
4 | CC(C)Nc1nc(-c2ccncc2)nc2cnccc12 [Example 6, N-(propan-2-yl)-2-(pyridin-4-yl)pyrido[3,4-d]pyrimidin-4-amine] | 1 | 8 | 2600 | 391 | 3378 | 1240 | 93 | 1275 | 1700
5 | CC(C)(CO)Nc1nc(-c2ccncc2)nc2cnccc12 [Example 66, 2-methyl-2-{[2-(pyridin-4-yl)pyrido[3,4-d]pyrimidin-4-yl]amino}propan-1-ol] | 2 | 11 | 6200 | 280 | 2503 | 534 | 89 | 1160 | 1010
6 | CC1CCCC1Nc1nc(-c2ccncc2)nc2cnccc12 (stereo not shown) [Example 17, N-(2-methylcyclopentyl)-2-(pyridin-4-yl)pyrido[3,4-d]pyrimidin-4-amine] | 5 | – | – | 187 | 1628 | 606 | 86 | 976 | 2630

The next lines start with results.

Row | IC50 (LATS1) [nM] | IC50 [7] [nM] | IC50 [8] [nM] | Compound | Expansion factor (Fold Cell expansion) [1] | Endothelial Cell density in vitro [2] [cells/mm^2] | IC50 [3] [nM] | Percentage of p63a-positive cells [4] [%] | Expansion factor [5] | EC50 [6] [nM]
7 | 4 | 8 | 3000 | FC(F)(F)C1CN(c2nc(-c3ccncc3)nc3cnccc23)CCN1 (stereo not shown) [Example 290, 2-(pyridin-4-yl)-4-(3-(trifluoromethyl)piperazin-1-yl)pyrido[3,4-d]pyrimidine] | 221 | 2071 | – | 90 | 1051 | 1390
8 | 2 | 15 | 9000 | CCCNc1nc(-c2c[nH]nc2C(F)(F)F)nc2cnccc12 [Example 287, N-propyl-2-(3-(trifluoromethyl)-1H-pyrazol-4-yl)pyrido[3,4-d]pyrimidin-4-amine] | 237 | 1893 | 2990 | 86 | 991 | 3880
9 | 3 | 20 | 1700 | CC(C)(Nc1nc(-c2ccncc2Cl)nc2cnccc12)C(F)(F)F [Example 139, 2-(3-chloropyridin-4-yl)-N-(1,1,1-trifluoro-2-methylpropan-2-yl)pyrido[3,4-d]pyrimidin-4-amine] | 107 | 1179 | 380 | 87 | 961 | 2660
10 | 4 | 34 | – | FC(F)(F)C1(Nc2nc(-c3ccncc3)cc3cnccc23)CC1 [Example 288, 3-(pyridin-4-yl)-N-(1-(trifluoromethyl)cyclopropyl)-2,6-naphthyridin-1-amine] | 302 | 2779 | 18300 | 95 | 1241 | 7420
11 | 4 | – | – | CC1(Nc2cc(-c3ccncc3)cc3cnccc23)CC1 [Example 289, N-(1-methylcyclopropyl)-7-(pyridin-4-yl)isoquinolin-5-amine] | 84 | 1421 | 34100 | 80 | 681 | 6500
